What all share (assay type): functional
Details in all cases: read-out: LC50 (the source's name)

In one test the test system is A 172. In words: Compound was evaluated for cytotoxicity against human glioblastoma (A172) cell line.
For another test, the system named is D283 Med. In words: Compound was evaluated for cytotoxicity against human medulloblastoma (D283 Med) cell line.
The test system of a further test is T98G. In words: Compound was evaluated for cytotoxicity against human glioblastoma (T98G) cell line.

For the molecule `Cc1cccc2c1N[C@@H]1[C@@H]3Cc4ccccc4CN3CC[C@@H]1C2(C)C`, the CC50 was 31 µM with A 172, 20 µM with D283 Med and 21 µM in the test with T98G.

As to `CC1(C)c2cc(C(F)(F)F)ccc2N[C@@H]2[C@@H]3Cc4ccccc4CN3CC[C@@H]21`, the CC50 in the test on A 172 turned out to be 20 µM; in the test on D283 Med, 17 µM; in the test on T98G it was 13 µM.

For the molecule `COc1ccc2c(c1)C(C)(C)[C@H]1CCN3Cc4ccccc4C[C@H]3[C@H]1N2`, the CC50 was found to be 42 µM with A 172, 25 µM with D283 Med and 35 µM in the test with T98G.

Turning to `Cc1ccc2c(c1)C(C)(C)[C@H]1CCN3Cc4ccccc4C[C@H]3[C@H]1N2`, the CC50 turned out to be 25 µM in the test on A 172, 20 µM with D283 Med and 20 µM in the test on T98G.

With `C=C(C)[C@H]1CCN2Cc3ccccc3C[C@H]2[C@H]1NCc1ccc(Cl)cc1`, the CC50 in the test with A 172 is 55 µM; with D283 Med, 29 µM; in the test with T98G it was 42 µM.

Consider `CC1(C)c2cc(Cl)ccc2N[C@@H]2[C@@H]3Cc4ccccc4CN3CC[C@@H]21`, for which the CC50 was 22 µM with A 172, 8 µM in the test with D283 Med and 12 µM in the test on T98G.

With `CC1(C)c2ccccc2N[C@@H]2[C@@H]3Cc4ccccc4CN3CC[C@@H]21`, the CC50 worked out at 45 µM in the test with A 172, 22 µM with D283 Med and 14 µM in the test on T98G.

Source of the values: ChEMBL document CHEMBL1131267, “Diastereoselective synthesis of octahydro-14H-benzo[g]quinolino-[2,3-a]quinolidines. Improved cytotoxic activity against human brain tumor cell lines as a result of the increased rigidity of the molecular backbone” (1998).
